Measured values taken from patent US7670791B1, “Method for the suppression of visceral pain by regulating T-type calcium channel” (Korea Institute of Science and Technology, priority 2001, dated 2010).

What was measured:
[1] = tested on: visceral pain caused by acetic acid in normal mice; test: Acetic acid-induced visceral pain (writhing test) after mibefradil injection; assay type: in vivo
Method: The present inventors injected 0.6% acetic acid into the peritoneal cavity of mice to examine the acetic acid-induced visceral pain response. The visceral pain is elicited secondarily to a delayed inflammatory response and induced abdominal stretching and writhing behavior (Gyires and Torma, Arch Int. Pharmacodyn. Ther., 1984, 267:131-140). Mice were placed individually in a transparent home cage (24×18×12 cm) and allowed to acclimate for at least 60 min. Then, 0.6% acetic acid ([…]) was injected into the peritoneum, after which the mice was returned to the testing chamber. The number of abdominal stretches or writhing motions was counted for 20 min. All mice were used only once in this experiment. […]
Particularly, in order to find out how mibefradil, the T-type calcium channel inhibitor functions, mibefreail was dissolved in 0.9% of NaCl at the concentration of 5 mg/ml. The degree of writhing was measured in a visceral pain inducing experiment 20 minutes after the injection of the said mibefradil at the concentration of 1, 10 and 30 mg/kg respectively in peritoneum of the mice.

[2] = inside the body, after peripheral (peritoneal) injection; cited from earlier work

Question: Which “degree of writhing / visceral pain caused by acetic acid” value ([1]; normal (wild-type) mice, mibefradil 1, 10 and 30 mg/kg in peritoneum, 20 minutes before test, 0.6% acetic acid i.p., FIG. 4) does the source give for `COCC(=O)O[C@]1(CCN(C)CCCc2nc3ccccc3[nH]2)CCc2cc(F)ccc2[C@@H]1C(C)C` [mibefradil, Mibefradil] here?
Answer: The value was “induced analgesia”.

Question: What about the “visceral pain caused by acetic acid” value ([1]; wild-type mice, mibefradil injected in the brain) of the same molecule?
Answer: The value was “enhanced”.

Question: What about the “passage through the brain barrier” value [2] of the same molecule?
Answer: Its value is “cannot pass through the brain barrier”.
